Measurements reported in US9745261B2, “Inhibitors of the MITF molecular pathway” (THE GENERAL HOSPITAL CORPORATION, priority 2013, dated 2017).

Legend:
Adrenergic α2A = biological target: T1, Adrenergic α2A (Homo sapiens, UniProt P08913); assay: Radioligand binding, Adrenergic α2A
T1 construct: Eurofins Panlabs, Inc. (contract assay)

Adrenergic β1 = biological target: T2, Adrenergic β1 (Homo sapiens, UniProt P08588); assay: Radioligand binding, Adrenergic β1
T2 construct: Eurofins Panlabs, Inc. (contract assay)

Adrenergic β2 = biological target: T3, Adrenergic β2 (Homo sapiens, UniProt P07550); assay: Radioligand binding, Adrenergic β2
T3 construct: Eurofins Panlabs, Inc. (contract assay)

[1] = biological target: T4, Androgen (Testosterone) AR (Rattus norvegicus, UniProt P15207); assay: Radioligand binding, Androgen (Testosterone) AR
T4 construct: Eurofins Panlabs, Inc. (contract assay)

Calcium Channel N-Type = biological target: T5, Calcium Channel N-Type (Rattus norvegicus, UniProt Q02294); assay: Radioligand binding, Calcium Channel N-Type
T5 construct: Eurofins Panlabs, Inc. (contract assay)

Dopamine D2S = biological target: T6, Dopamine D2S (Homo sapiens, UniProt P14416); assay: Radioligand binding, Dopamine D2S
T6 construct: Eurofins Panlabs, Inc. (contract assay)

Dopamine D3 = biological target: T7, Dopamine D3 (Homo sapiens, UniProt P35462); assay: Radioligand binding, Dopamine D3
T7 construct: Eurofins Panlabs, Inc. (contract assay)

Endothelin ETA = biological target: T8, Endothelin ETA (Homo sapiens, UniProt P25101); assay: Radioligand binding, Endothelin ETA
T8 construct: Eurofins Panlabs, Inc. (contract assay)

Endothelin ETB = biological target: T9, Endothelin ETB (Homo sapiens, UniProt P24530); assay: Radioligand binding, Endothelin ETB
T9 construct: Eurofins Panlabs, Inc. (contract assay)

Estrogen ERα = biological target: T10, Estrogen ERα (Homo sapiens, UniProt P03372); assay: Radioligand binding, Estrogen ERα
T10 construct: Eurofins Panlabs, Inc. (contract assay)

Histamine H1 = biological target: T11, Histamine H1 (Homo sapiens, UniProt P35367); assay: Radioligand binding, Histamine H1
T11 construct: Eurofins Panlabs, Inc

Histamine H2 = biological target: T12, Histamine H2 (Homo sapiens, UniProt P25021); assay: Radioligand binding, Histamine H2
T12 construct: Eurofins Panlabs, Inc

Histamine H3 = biological target: T13, Histamine H3 (Homo sapiens, UniProt Q9Y5N1); assay: Radioligand binding, Histamine H3
T13 construct: Eurofins Panlabs, Inc

Interleukin IL-1 = biological target: T14, Interleukin IL-1 (Mus musculus, UniProt P13504); assay: Radioligand binding, Interleukin IL-1
T14 construct: Eurofins Panlabs, Inc

[2] = biological target: T15, Leukotriene, Cysteinyl CysLT1 (Homo sapiens, UniProt Q9Y271); assay: Radioligand binding, Leukotriene, Cysteinyl CysLT1
T15 construct: Eurofins Panlabs, Inc

Melatonin MT1 = biological target: T16, Melatonin MT1 (Homo sapiens, UniProt P48039); assay: Radioligand binding, Melatonin MT1
T16 construct: Eurofins Panlabs, Inc

Muscarinic M2 = biological target: T17, Muscarinic M2 (Homo sapiens, UniProt P08172); assay: Radioligand binding, Muscarinic M2
T17 construct: Eurofins Panlabs, Inc

Neuropeptide Y Y1 = biological target: T18, Neuropeptide Y Y1 (Homo sapiens, UniProt P25929); assay: Radioligand binding, Neuropeptide Y Y1
T18 construct: Eurofins Panlabs, Inc

Opiate δ1 (OP1, DOP) = biological target: T19, Opiate δ1 (OP1, DOP) (Homo sapiens, UniProt P41143); assay: Radioligand binding, Opiate δ1 (OP1, DOP)
T19 construct: Eurofins Panlabs, Inc

Opiate κ (OP2, KOP) = biological target: T20, Opiate κ (OP2, KOP) (Homo sapiens, UniProt P41145); assay: Radioligand binding, Opiate κ (OP2, KOP)
T20 construct: Eurofins Panlabs, Inc

[3] = biological target: T21, Platelet Activating Factor (PAF) (Homo sapiens, UniProt P25105); assay: Radioligand binding, Platelet Activating Factor (PAF)
T21 construct: Eurofins Panlabs

Potassium Channel [KATP] = biological target: T22, Potassium Channel [KATP] (Cricetus cricetus, UniProt Q09427); assay: Radioligand binding, Potassium Channel [KATP]; conditions: hamster
T22 construct: Eurofins Panlabs
Protocol: To evaluate, in radioligand binding assays, the activity of the compound of Example 1 across a panel of 67 receptors.
Methods employed in this study have been adapted from the scientific literature to maximize reliability and reproducibility. Reference standards were run as an integral part of each assay to ensure the validity of the results obtained.
Where presented, IC50 values were determined by a non-linear, least squares regression analysis using MathIQ™ (ID Business Solutions Ltd., UK). Where inhibition constant (Ki) are presented, the Ki values were calculated using the equation of Cheng and Prusoff (Cheng. Y., Prusoff, W. H., Biochem. Pharmacol. 22:3099-3108, 1973) using the observed IC50 of the tested compound, the concentration of radioligand employed in the assay, and the historical values of the KD of the ligand (obtained experimentally at Eurofins Panlabs, Inc.). Where presented, the Hill coefficient (nH), defining the slope of the competitive binding curve, was calculated using MathIQ™. […] Where IC50, Ki, and/or nH data are presented without Standard Error of the Mean (SEM), data are insufficient to be quantitative, and the values presented (Ki, IC50, nH) should be interpreted with caution.

Potassium Channel hERG = biological target: T23, Potassium Channel hERG (Homo sapiens, UniProt Q12809); assay: Radioligand binding, Potassium Channel hERG
T23 construct: Eurofins Panlabs

Prostanoid EP4 = biological target: T24, Prostanoid EP4 (Homo sapiens, UniProt P35408); assay: Radioligand binding, Prostanoid EP4
T24 construct: Eurofins Panlabs

[4] = biological target: T25, Serotonin (5-Hydroxytryptamine) 5-HT1A (Homo sapiens, UniProt P08908); assay: Radioligand binding, Serotonin (5-Hydroxytryptamine) 5-HT1A
T25 construct: Eurofins Panlabs

[5] = biological target: T26, Serotonin (5-Hydroxytryptamine) 5-HT3 (Homo sapiens, UniProt P46098); assay: Radioligand binding, Serotonin (5-Hydroxytryptamine) 5-HT3
T26 construct: Eurofins Panlabs

Sigma σ1 = biological target: T27, Sigma σ1 (Homo sapiens, UniProt Q99720); assay: Radioligand binding, Sigma σ1
T27 construct: Eurofins Panlabs

Transporter, GABA = biological target: T28, Transporter, GABA (Rattus norvegicus, UniProt P23978); assay: Radioligand binding, Transporter, GABA
T28 construct: Eurofins Panlabs

[6] = biological target: T29, Transporter, Norepinephrine (NET) (Homo sapiens, UniProt P23975); assay: Radioligand binding, Transporter, Norepinephrine (NET)
T29 construct: Eurofins Panlabs

[7] = biological target: T30, Transporter, Serotonin (5-Hydroxytryptamine) (SERT) (Homo sapiens, UniProt P31645); assay: Radioligand binding, Transporter, Serotonin (5-Hydroxytryptamine) (SERT)
T30 construct: Eurofins Panlabs

T10 sequence (P03372 whole entry): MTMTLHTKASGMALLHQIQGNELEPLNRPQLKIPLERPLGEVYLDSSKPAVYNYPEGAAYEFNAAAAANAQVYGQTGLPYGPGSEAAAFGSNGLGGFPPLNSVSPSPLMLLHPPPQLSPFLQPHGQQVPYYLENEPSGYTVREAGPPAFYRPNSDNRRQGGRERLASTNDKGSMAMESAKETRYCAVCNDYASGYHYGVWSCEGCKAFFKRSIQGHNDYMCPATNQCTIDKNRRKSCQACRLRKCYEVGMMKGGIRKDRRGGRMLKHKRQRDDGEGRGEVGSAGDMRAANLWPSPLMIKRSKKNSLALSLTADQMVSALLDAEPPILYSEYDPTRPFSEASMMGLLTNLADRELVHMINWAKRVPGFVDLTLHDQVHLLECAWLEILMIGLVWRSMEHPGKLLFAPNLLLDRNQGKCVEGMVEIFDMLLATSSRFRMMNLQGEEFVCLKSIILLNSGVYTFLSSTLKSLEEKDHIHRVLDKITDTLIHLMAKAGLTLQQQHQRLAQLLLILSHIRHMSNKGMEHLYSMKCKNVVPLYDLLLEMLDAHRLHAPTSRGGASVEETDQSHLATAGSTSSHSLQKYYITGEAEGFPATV
T22 sequence (Q09427 whole entry): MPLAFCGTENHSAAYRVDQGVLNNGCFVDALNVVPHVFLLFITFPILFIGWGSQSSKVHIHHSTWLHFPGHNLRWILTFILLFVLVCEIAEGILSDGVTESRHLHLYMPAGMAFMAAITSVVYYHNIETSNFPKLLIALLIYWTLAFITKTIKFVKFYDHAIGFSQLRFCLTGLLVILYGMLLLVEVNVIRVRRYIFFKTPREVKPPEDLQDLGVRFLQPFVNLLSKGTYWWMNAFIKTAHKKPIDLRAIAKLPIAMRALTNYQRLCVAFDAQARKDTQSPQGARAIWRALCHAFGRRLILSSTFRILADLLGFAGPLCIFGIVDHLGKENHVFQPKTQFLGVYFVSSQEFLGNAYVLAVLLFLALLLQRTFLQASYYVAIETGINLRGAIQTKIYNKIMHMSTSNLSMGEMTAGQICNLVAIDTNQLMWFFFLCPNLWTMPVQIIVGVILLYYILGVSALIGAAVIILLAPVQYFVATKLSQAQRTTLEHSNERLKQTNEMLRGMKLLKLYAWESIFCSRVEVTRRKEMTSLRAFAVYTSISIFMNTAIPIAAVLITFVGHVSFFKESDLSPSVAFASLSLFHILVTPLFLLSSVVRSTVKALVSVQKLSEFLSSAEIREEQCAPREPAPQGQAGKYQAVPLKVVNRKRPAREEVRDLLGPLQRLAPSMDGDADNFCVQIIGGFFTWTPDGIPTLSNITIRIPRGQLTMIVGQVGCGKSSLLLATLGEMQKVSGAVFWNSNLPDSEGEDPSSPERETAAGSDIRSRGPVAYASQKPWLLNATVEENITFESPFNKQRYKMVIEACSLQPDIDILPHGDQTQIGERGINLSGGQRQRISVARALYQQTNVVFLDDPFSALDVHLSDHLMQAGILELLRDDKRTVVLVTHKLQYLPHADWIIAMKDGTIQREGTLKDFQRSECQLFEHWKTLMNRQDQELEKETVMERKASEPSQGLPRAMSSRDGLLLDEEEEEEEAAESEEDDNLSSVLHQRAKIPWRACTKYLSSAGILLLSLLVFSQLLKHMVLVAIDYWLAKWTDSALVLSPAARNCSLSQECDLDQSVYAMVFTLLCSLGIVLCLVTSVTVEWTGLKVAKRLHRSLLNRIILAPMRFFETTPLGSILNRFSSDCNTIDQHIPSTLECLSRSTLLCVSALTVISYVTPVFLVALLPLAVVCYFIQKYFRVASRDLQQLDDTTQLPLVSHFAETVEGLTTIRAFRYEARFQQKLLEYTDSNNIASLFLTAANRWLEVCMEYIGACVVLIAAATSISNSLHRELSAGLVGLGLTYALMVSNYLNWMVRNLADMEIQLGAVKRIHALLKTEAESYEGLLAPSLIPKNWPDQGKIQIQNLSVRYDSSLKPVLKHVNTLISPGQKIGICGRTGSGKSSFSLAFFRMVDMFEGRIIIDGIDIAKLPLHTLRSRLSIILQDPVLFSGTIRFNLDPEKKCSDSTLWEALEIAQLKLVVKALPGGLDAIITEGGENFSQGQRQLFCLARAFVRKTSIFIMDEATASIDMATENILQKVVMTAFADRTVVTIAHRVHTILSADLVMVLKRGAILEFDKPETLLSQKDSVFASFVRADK
T25 sequence (P08908 whole entry): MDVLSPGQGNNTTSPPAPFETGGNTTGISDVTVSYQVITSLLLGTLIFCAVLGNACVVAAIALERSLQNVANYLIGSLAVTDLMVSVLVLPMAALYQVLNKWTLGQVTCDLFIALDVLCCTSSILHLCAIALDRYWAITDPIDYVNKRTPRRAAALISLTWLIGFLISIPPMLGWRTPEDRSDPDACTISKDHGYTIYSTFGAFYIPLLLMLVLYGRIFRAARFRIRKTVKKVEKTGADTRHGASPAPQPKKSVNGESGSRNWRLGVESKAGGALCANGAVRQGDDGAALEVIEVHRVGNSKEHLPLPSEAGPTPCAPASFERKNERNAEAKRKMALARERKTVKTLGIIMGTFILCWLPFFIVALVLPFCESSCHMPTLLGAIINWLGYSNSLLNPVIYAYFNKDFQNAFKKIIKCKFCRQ
T8 sequence (P25101 21-427): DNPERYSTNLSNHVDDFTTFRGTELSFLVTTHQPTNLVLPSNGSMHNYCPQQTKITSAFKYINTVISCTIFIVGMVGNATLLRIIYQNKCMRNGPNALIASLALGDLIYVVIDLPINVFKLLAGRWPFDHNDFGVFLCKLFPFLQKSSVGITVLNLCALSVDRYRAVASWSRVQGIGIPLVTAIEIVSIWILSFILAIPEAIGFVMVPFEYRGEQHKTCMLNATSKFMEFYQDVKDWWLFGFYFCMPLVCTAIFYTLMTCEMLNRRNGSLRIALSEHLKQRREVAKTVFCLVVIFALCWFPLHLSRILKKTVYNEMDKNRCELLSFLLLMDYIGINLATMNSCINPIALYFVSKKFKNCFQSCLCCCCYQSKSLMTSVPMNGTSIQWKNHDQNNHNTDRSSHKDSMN
T4 sequence (P15207 whole entry S389L): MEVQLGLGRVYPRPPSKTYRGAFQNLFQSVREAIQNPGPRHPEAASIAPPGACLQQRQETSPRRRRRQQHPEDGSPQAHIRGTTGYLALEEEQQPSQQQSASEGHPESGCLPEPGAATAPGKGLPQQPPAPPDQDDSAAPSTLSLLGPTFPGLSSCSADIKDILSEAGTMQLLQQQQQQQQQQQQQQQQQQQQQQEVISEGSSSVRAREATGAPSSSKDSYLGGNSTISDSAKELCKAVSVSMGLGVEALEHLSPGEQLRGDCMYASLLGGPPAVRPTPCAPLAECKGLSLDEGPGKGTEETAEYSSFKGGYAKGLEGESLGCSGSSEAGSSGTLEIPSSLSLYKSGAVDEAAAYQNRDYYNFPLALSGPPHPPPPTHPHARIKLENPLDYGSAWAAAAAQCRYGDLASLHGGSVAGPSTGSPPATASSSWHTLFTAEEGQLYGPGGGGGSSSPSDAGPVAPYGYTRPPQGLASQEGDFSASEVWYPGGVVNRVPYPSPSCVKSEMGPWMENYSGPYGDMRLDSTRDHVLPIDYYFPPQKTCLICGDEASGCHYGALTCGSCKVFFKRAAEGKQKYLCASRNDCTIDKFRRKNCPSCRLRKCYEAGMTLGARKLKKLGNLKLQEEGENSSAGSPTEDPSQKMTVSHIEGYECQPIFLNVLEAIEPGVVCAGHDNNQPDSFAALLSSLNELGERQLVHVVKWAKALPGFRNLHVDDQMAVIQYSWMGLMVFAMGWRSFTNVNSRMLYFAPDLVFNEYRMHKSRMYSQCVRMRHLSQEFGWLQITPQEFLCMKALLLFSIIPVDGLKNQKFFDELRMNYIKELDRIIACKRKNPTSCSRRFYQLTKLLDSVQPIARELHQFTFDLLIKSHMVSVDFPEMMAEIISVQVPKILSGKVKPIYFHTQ
T17 sequence (P08172 whole entry): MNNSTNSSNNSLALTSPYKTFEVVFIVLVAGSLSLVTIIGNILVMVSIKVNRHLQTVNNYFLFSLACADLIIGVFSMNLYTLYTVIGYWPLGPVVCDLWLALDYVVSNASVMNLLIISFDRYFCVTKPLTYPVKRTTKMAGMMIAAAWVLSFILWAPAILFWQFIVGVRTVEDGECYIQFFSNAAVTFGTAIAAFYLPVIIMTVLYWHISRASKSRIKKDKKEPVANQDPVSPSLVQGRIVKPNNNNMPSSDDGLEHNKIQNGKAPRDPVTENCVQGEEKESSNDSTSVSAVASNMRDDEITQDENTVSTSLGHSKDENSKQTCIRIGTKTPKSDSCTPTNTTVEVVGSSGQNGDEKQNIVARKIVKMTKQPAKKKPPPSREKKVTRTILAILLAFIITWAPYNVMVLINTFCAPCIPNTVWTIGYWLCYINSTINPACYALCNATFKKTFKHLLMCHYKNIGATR
T6 sequence (P14416 1-414 isoform P14416-2): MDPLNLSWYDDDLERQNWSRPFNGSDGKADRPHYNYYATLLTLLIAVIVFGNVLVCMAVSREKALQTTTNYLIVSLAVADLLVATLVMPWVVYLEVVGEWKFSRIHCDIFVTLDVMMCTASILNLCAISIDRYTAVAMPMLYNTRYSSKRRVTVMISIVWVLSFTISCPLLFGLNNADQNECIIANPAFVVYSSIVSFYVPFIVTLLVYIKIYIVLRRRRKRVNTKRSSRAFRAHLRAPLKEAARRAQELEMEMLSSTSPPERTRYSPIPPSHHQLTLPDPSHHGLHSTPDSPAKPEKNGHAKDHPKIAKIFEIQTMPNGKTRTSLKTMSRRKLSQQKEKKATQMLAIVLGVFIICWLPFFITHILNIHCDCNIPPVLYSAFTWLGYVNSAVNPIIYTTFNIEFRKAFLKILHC
T27 sequence (Q99720 whole entry): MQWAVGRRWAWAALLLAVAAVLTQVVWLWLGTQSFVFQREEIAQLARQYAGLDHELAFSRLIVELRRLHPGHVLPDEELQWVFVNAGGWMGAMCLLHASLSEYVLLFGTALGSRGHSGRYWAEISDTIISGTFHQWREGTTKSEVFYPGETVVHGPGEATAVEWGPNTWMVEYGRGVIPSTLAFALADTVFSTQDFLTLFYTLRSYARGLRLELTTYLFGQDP

`NS(=O)(=O)c1ccc(NC2=CC(=O)c3ccccc3C2=O)cc1` [Example 1, 4-((1,4-Dioxo-1,4-dihydronaphthalen-2-yl)amino)benzenesulfonamide] was tested. Which inhibition at 10 µM (Adrenergic α2A) did it give?
The inhibition at 10 µM was 33%.

And the inhibition at 10 µM (Adrenergic β1)?
The inhibition at 10 µM was 20%.

What about the inhibition at 10 µM (Adrenergic β2) of the same molecule?
Its inhibition at 10 µM is 10%.

What about the inhibition at 10 µM [1] of the same molecule?
The inhibition at 10 µM was 14%.

What about the inhibition at 10 µM (Calcium Channel N-Type) of the same molecule?
Its inhibition at 10 µM is -3%.

What about the inhibition at 10 µM (Dopamine D2S) of the same molecule?
The inhibition at 10 µM was 0%.

And the inhibition at 10 µM (Dopamine D3)?
Its inhibition at 10 µM is 9%.

And the inhibition at 10 µM (Endothelin ETA)?
Its inhibition at 10 µM is 17%.

What about the inhibition at 10 µM (Endothelin ETB) of the same molecule?
Its inhibition at 10 µM is 17%.

And the inhibition at 10 µM (Estrogen ERα)?
Its inhibition at 10 µM is 5%.

And the inhibition at 10 µM (Histamine H1)?
Its inhibition at 10 µM is -5%.

What about the inhibition at 10 µM (Histamine H2) of the same molecule?
The inhibition at 10 µM was -5%.

What about the inhibition at 10 µM (Histamine H3) of the same molecule?
Its inhibition at 10 µM is -5%.

What about the inhibition at 10 µM (Interleukin IL-1) of the same molecule?
The inhibition at 10 µM was 6%.

What about the inhibition at 10 µM [2] of the same molecule?
Its inhibition at 10 µM is 5%.

What about the inhibition at 10 µM (Melatonin MT1) of the same molecule?
The inhibition at 10 µM was 9%.

What about the inhibition at 10 µM (Muscarinic M2) of the same molecule?
The inhibition at 10 µM was 15%.

What about the inhibition at 10 µM (Neuropeptide Y Y1) of the same molecule?
The inhibition at 10 µM was -6%.

And the inhibition at 10 µM (Opiate δ1 (OP1, DOP))?
The inhibition at 10 µM was -6%.

And the inhibition at 10 µM (Opiate κ (OP2, KOP))?
The inhibition at 10 µM was 19%.

What about the inhibition at 10 µM [3] of the same molecule?
The inhibition at 10 µM was 3%.

And the inhibition at 10 µM (Potassium Channel [KATP])?
The inhibition at 10 µM was 10%.

What about the inhibition at 10 µM (Potassium Channel hERG) of the same molecule?
Its inhibition at 10 µM is -4%.

And the inhibition at 10 µM (Prostanoid EP4)?
Its inhibition at 10 µM is 11%.

What about the inhibition at 10 µM [4] of the same molecule?
Its inhibition at 10 µM is 21%.

And the inhibition at 10 µM [5]?
Its inhibition at 10 µM is 5%.

What about the inhibition at 10 µM (Sigma σ1) of the same molecule?
The inhibition at 10 µM was 15%.

What about the inhibition at 10 µM (Transporter, GABA) of the same molecule?
The inhibition at 10 µM was 9%.

What about the inhibition at 10 µM [6] of the same molecule?
Its inhibition at 10 µM is 8%.

And the inhibition at 10 µM [7]?
Its inhibition at 10 µM is -5%.
